ChEMBL document CHEMBL3102697, “Controlled-deactivation cannabinergic ligands” (J Med Chem, 2013)
Activity calls are given as the source filed them. The calls are words filed in the database; no cut-off is given here.

Assays:
[1] = target: Cannabinoid receptor 2 (Homo sapiens, UniProt P34972); assay: Displacement of [3H]CP-55,940 from human CB2 receptor expressed in HEK293 cell membranes by scintillation counting analysis
[2] = test system: Plasma; assay: Half life in rat plasma at 200 uM by HPLC analysis; format: ADME, cell-free
[3] = target: Cannabinoid receptor 1 (Rattus norvegicus) (UniProt P20272); assay: Agonist activity at rat CB1 receptor expressed in HEK293 cells assessed as inhibition of forskolin-stimulated cAMP accumulation up to 5 uM after 30 mins; format: functional, cell-based
[4] = target: T1, Cannabinoid receptor 1 (Rattus norvegicus, UniProt P20272); assay: Displacement of [3H]CP-55,940 from CB1 receptor in rat brain by scintillation counting analysis; format: tissue-based
[5] = test system: Rattus norvegicus; assay: Induction of hypothermia in Sprague-Dawley rat at 3 mg/kg, sc after 6 hrs; format: functional, organism-based; design: dose 3 mg/kg
[6] = test system: Plasma; assay: Half life in mouse plasma at 200 uM by HPLC analysis; format: ADME, cell-free
[7] = test system: Rattus norvegicus; assay: Induction of hypothermia in Sprague-Dawley rat at 0.1 to 3 mg/kg, sc measured for 6 hrs; format: functional, organism-based
[8] = target: Cannabinoid receptor 2 (Mus musculus, UniProt P47936); assay: Displacement of [3H]CP-55,940 from mouse CB2 receptor expressed in HEK293 cell membranes by scintillation counting analysis
[9] = test system: Rattus norvegicus; assay: Induction of hypothermia in sc dosed Sprague-Dawley rat measured for 6 hrs; format: functional, organism-based
[10] = test system: Rattus norvegicus; assay: Induction of hypothermia in Sprague-Dawley rat at 0.3 mg/kg, sc up to 6 hrs; format: functional, organism-based; design: dose 0.3 mg/kg
[11] = target: T1, Cannabinoid receptor 1; assay: Agonist activity at rat CB1 receptor expressed in HEK293 cells assessed as inhibition of forskolin-stimulated cAMP accumulation after 30 mins; format: functional, cell-based
[12] = target: Cannabinoid receptor 1 (Rattus norvegicus) (UniProt P20272); assay: Agonist activity at rat CB1 receptor expressed in HEK293 cells assessed as inhibition of forskolin-stimulated cAMP accumulation at 500 nM after 30 mins relative to CP-55,940; format: functional, cell-based
[13] = test system: Rattus norvegicus; assay: Induction of hypothermia in Sprague-Dawley rat at 3 mg/kg, sc after 60 mins; format: functional, organism-based; design: dose 3 mg/kg
[14] = test system: Rattus norvegicus; assay: Induction of hypothermia in Sprague-Dawley rat at 0.3 mg/kg, sc after 2 hrs; format: functional; conditions: route subcutaneous
[15] = test system: Mus musculus; assay: Analgesic activity in CD-1 mouse assessed as tail-flick withdrawal latency at 0.3 to 1 mg/kg, ip; format: functional, organism-based
[16] = test system: Rattus norvegicus; assay: Induction of hypothermia in Sprague-Dawley rat at 1 to 3 mg/kg, sc measured for 6 hrs; format: functional; conditions: dose mg/kg 1-3; route subcutaneous
[17] = test system: Rattus norvegicus; assay: Induction of hypothermia in Sprague-Dawley rat at 3 mg/kg, sc up to 300 mins; format: functional, organism-based; design: dose 3 mg/kg
[18] = test system: Rattus norvegicus; assay: Induction of hypothermia in Sprague-Dawley rat at 0.3 mg/kg, sc measured at 12 hrs; format: functional, organism-based; design: dose 0.3 mg/kg
[19] = test system: Rattus norvegicus; assay: Induction of hypothermia in Sprague-Dawley rat at 0.3 mg/kg, sc after 4 hrs; format: functional, organism-based; design: dose 0.3 mg/kg
[20] = test system: Rattus norvegicus; assay: Induction of hypothermia in Sprague-Dawley rat at 1 mg/kg, sc after 90 to 120 mins; format: functional, organism-based; design: dose 1 mg/kg
[21] = test system: Rattus norvegicus; assay: Induction of hypothermia in Sprague-Dawley rat at 1 mg/kg, sc up to 300 mins; format: functional, organism-based; design: dose 1 mg/kg
[22] = test system: Rattus norvegicus; assay: Induction of hypothermia in Sprague-Dawley rat at 3 mg/kg, sc after 90 to 120 mins; format: functional, organism-based; design: dose 3 mg/kg

Chain of Cannabinoid receptor 2 (Homo sapiens, UniProt P34972) (P34972 whole entry): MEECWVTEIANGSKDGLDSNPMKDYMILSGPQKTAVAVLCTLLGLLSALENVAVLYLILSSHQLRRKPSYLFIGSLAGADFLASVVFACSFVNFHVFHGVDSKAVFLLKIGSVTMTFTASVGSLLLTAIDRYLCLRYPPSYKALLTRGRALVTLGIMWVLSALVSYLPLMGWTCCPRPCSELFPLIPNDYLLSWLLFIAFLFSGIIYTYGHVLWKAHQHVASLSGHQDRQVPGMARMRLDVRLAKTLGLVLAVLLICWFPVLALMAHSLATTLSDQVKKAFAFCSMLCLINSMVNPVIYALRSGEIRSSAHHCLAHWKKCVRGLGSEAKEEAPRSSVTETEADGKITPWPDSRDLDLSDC
T1 sequence (P20272 whole entry): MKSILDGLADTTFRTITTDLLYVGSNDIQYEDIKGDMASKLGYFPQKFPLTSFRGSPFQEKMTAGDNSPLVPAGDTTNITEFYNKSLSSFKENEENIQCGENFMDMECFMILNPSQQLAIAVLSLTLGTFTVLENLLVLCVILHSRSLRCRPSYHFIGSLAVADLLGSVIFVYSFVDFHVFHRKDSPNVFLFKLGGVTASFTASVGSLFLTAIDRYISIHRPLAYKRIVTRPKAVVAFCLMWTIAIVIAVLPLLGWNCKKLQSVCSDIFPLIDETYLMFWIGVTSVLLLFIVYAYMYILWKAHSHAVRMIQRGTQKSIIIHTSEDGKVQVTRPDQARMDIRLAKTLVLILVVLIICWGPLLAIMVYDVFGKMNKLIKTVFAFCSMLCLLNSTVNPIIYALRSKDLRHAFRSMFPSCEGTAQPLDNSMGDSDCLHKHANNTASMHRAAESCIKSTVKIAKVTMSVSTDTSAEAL
Chain of Cannabinoid receptor 1 (Rattus norvegicus) (P20272 whole entry): as above
Chain of Cannabinoid receptor 2 (Mus musculus, UniProt P47936) (P47936 whole entry): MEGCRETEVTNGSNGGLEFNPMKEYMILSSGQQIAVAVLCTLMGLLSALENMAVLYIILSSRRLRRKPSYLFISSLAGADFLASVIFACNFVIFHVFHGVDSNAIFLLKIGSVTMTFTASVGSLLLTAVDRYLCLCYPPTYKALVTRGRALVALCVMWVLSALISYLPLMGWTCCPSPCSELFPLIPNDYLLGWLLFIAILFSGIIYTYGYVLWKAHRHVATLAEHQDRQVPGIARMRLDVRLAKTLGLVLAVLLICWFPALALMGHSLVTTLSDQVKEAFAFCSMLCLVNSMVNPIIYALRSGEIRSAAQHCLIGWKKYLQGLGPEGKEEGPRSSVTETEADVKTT

**Q.** For CCCCOC(=O)Cc1cc(O)c2c(c1)OC(C)(C)[C@@H]1CC=C(C)C[C@@H]21, which Ki [1] is on record?
**A.** The Ki was 51.5 nM.

**Q.** What about the t1/2 [2] of the same molecule?
**A.** The t1/2 was less than 0.5 min.

**Q.** What about the inhibition [3] of the same molecule?
**A.** Its inhibition is “inactive”.

**Q.** What about the Ki [4] of the same molecule?
**A.** Its Ki is 27.1 nM.

**Q.** And the Activity [5]?
**A.** The Activity was “inactive”.

**Q.** And the t1/2 [6]?
**A.** The t1/2 was 0.7 min.

**Q.** What about the Activity [7] of the same molecule?
**A.** Its Activity is “inactive”.

**Q.** What about the Ki [8] of the same molecule?
**A.** The Ki was 40.4 nM.

**Q.** Which Activity [9] does the source give for CC1=CC[C@@H]2[C@@H](C1)c1c(O)cc(C3(C(=O)O)CCC3)cc1OC2(C)C here?
**A.** Its Activity is “inactive”.

**Q.** What about the Ki [4] of the same molecule?
**A.** The Ki was greater than 10000 nM.

**Q.** What about the Ki [8] of the same molecule?
**A.** Its Ki is greater than 10000 nM.

**Q.** For CCCCOC(=O)C(C)(C)c1cc(O)c2c(c1)OC(C)(C)[C@@H]1CC=C(C)C[C@@H]21, which Ki [1] is on record?
**A.** Its Ki is 1.7 nM.

**Q.** What about the Activity [10] of the same molecule?
**A.** The Activity was “Active”.

**Q.** And the t1/2 [2]?
**A.** Its t1/2 is 120 min.

**Q.** What about the EC50 [11] of the same molecule?
**A.** The EC50 was 0.5 nM.

**Q.** And the Emax [12]?
**A.** The Emax was 92%.

**Q.** And the Activity [9]?
**A.** The Activity was “Dose-dependent effect”.

**Q.** And the Activity [13]?
**A.** Its Activity is “Active”.

**Q.** What about the Ki [4] of the same molecule?
**A.** The Ki was 0.3 nM.

**Q.** And the T [14]?
**A.** Its T is 2 °C.

**Q.** And the t1/2 [6]?
**A.** Its t1/2 is 12.4 min.

**Q.** What about the Activity [15] of the same molecule?
**A.** Its Activity is “Active”.

**Q.** What about the T [16] of the same molecule?
**A.** Its T is 3.6 °C.

**Q.** And the Ki [8]?
**A.** The Ki was 2.1 nM.

**Q.** What about the Activity [17] of the same molecule?
**A.** Its Activity is “inactive”.

**Q.** What does the source list for CCCCCCC(C)(C)c1cc(O)c2c(c1)OC(C)(C)[C@@H]1CC=C(C)C[C@@H]21?
**A.** Activity [18]: Active; Activity [7]: Active; Activity [15]: Active; Activity [19]: Active

**Q.** What does the source list for CCCCOC(=O)C1(c2cc(O)c3c(c2)OC(C)(C)[C@@H]2CC=C(C)C[C@@H]32)CCC1?
**A.** Ki [1]: 3 nM; t1/2 [2]: 263 min; EC50 [11]: 0.4 nM; Emax [12]: 90%; Activity [9]: Dose-dependent effect; t1/2 [6]: 36.3 min; Activity [20]: Active; T [16]: 3.6 °C; Activity [21]: inactive; Ki [8]: 3 nM

**Q.** Which Activity [9] does the source give for CC1=CC[C@@H]2[C@@H](C1)c1c(O)cc([C@@H](C)C(=O)O)cc1OC2(C)C here?
**A.** The Activity was “inactive”.

**Q.** What about the Ki [4] of the same molecule?
**A.** The Ki was greater than 10000 nM.

**Q.** What about the Ki [8] of the same molecule?
**A.** The Ki was greater than 10000 nM.

**Q.** Which results are given for CC1=CC[C@@H]2[C@@H](C1)c1c(O)cc(CC(=O)O)cc1OC2(C)C?
**A.** Activity [9]: inactive; Ki [4]: > 10000 nM; Ki [8]: > 10000 nM

**Q.** With CCCCOC(=O)[C@H](C)c1cc(O)c2c(c1)OC(C)(C)[C@@H]1CC=C(C)C[C@@H]21 as the molecule, how does the Ki [1] read?
**A.** The Ki was 3.7 nM.

**Q.** What about the t1/2 [2] of the same molecule?
**A.** Its t1/2 is 10.5 min.

**Q.** And the inhibition [3]?
**A.** The inhibition was “inactive”.

**Q.** What about the Ki [4] of the same molecule?
**A.** The Ki was 1.6 nM.

**Q.** What about the Activity [5] of the same molecule?
**A.** Its Activity is “inactive”.

**Q.** And the t1/2 [6]?
**A.** The t1/2 was 5.9 min.

**Q.** What about the Activity [7] of the same molecule?
**A.** The Activity was “inactive”.

**Q.** What about the Ki [8] of the same molecule?
**A.** The Ki was 4.5 nM.

**Q.** How did the Activity [9] turn out when CC1=CC[C@@H]2[C@@H](C1)c1c(O)cc([C@H](C)C(=O)O)cc1OC2(C)C was run?
**A.** Its Activity is “inactive”.

**Q.** What about the Ki [4] of the same molecule?
**A.** The Ki was greater than 10000 nM.

**Q.** And the Ki [8]?
**A.** The Ki was greater than 10000 nM.

**Q.** With CC1=CC[C@@H]2[C@@H](C1)c1c(O)cc(C(C)(C)C(=O)O)cc1OC2(C)C as the molecule, how does the Activity [9] read?
**A.** The Activity was “inactive”.

**Q.** What about the Ki [4] of the same molecule?
**A.** The Ki was greater than 10000 nM.

**Q.** What about the Ki [8] of the same molecule?
**A.** Its Ki is greater than 10000 nM.

**Q.** With CCCCOC(=O)[C@@H](C)c1cc(O)c2c(c1)OC(C)(C)[C@@H]1CC=C(C)C[C@@H]21 as the molecule, how does the Ki [1] read?
**A.** The Ki was 6.3 nM.

**Q.** What about the Activity [22] of the same molecule?
**A.** The Activity was “Active”.

**Q.** And the t1/2 [2]?
**A.** The t1/2 was 4.3 min.

**Q.** And the EC50 [11]?
**A.** Its EC50 is 4.2 nM.

**Q.** What about the Emax [12] of the same molecule?
**A.** The Emax was 63%.

**Q.** And the Activity [9]?
**A.** The Activity was “Dose-dependent effect”.

**Q.** What about the Ki [4] of the same molecule?
**A.** The Ki was 0.6 nM.

**Q.** And the t1/2 [6]?
**A.** Its t1/2 is 4 min.

**Q.** And the T [16]?
**A.** The T was 3.6 °C.

**Q.** What about the Ki [8] of the same molecule?
**A.** Its Ki is 6.2 nM.

**Q.** And the Activity [17]?
**A.** The Activity was “inactive”.
